Where only a bound is given, the exact number is not on record here.

The text below walks through data of ChEMBL document CHEMBL3994643, “Synthesis and glucose-stimulate insulin secretion (GSIS) evaluation of vindoline derivatives” (Bioorg Med Chem Lett, 2017).

The assay relates to MIN6. Kind of assay: Induction of glucose-stimulated insulin secretion in mouse MIN6 cells after 2 hrs by ELISA. Type of assay: functional, cell-based. The following applies: MIN6, 2 h. In general terms: An ELISA detects its analyte on a solid surface through an enzyme-linked reagent.
A word on the EC50: it is the midpoint of the concentration-response curve. Take `CCO[C@@H]1[C@]2(CC)C=CCN3CC[C@@]4(c5ccc(OC)cc5N(C)[C@H]4[C@@]1(O)C(=O)OC)[C@@H]32`: the response was half-maximal at 62.2 µM (EC50).

`CC[C@]12C=CCN3CC[C@@]4(c5ccc(OC)cc5N(C)[C@H]4[C@@](O)(C(=O)OC)[C@@H]1O)[C@@H]32` displayed an EC50 greater than 100 µM. `CCCCO[C@@H]1[C@]2(CC)C=CCN3CC[C@@]4(c5ccc(OC)cc5N(C)[C@H]4[C@@]1(O)C(=O)OC)[C@@H]32` came in with an EC50 greater than 100 µM. To `CCC(=O)O[C@@H]1[C@]2(CC)CCCN3CC[C@@]4(c5ccc(OC)cc5N(C)[C@H]4[C@@]1(O)C(=O)OC)[C@@H]32` belongs 38.5 µM.

In the case of `CCOC[C@@]1(O)[C@H](OC(C)=O)[C@]2(CC)C=CCN3CC[C@@]4(c5ccc(OC)cc5N(C)[C@@H]14)[C@@H]32`, a half-maximal effect (EC50) was put at 11 µM. In the case of `CC[C@]12C=CCN3CC[C@@]4(c5ccc(OC)cc5N(C)[C@H]4[C@@](O)(C(=O)OC)[C@@H]1OC(=O)c1ccccc1)[C@@H]32`, a half-maximal response (EC50) required 62.2 µM.

`CCC(=O)OC[C@@]1(O)[C@H](OC(C)=O)[C@]2(CC)C=CCN3CC[C@@]4(c5ccc(OC)cc5N(C)[C@@H]14)[C@@H]32` showed an EC50 of 51 µM. For the molecule `CC[C@]12CCCN3CC[C@@]4(c5ccc(OC)cc5N(C)[C@H]4[C@@](O)(C(=O)OC)[C@@H]1OC(=O)C(C)C)[C@@H]32`, it took 14.2 µM to reach a half-maximal effect (EC50). `CCC(=O)NC[C@@]1(O)[C@H](OC(C)=O)[C@]2(CC)C=CCN3CC[C@@]4(c5ccc(OC)cc5N(C)[C@@H]14)[C@@H]32` registered an EC50 of 12.7 µM. For the molecule `CC[C@]12C=CCN3CC[C@@]4(c5ccc(OC)cc5N(C)[C@H]4[C@@](O)(COC(=O)C(C)C)[C@@H]1OC(C)=O)[C@@H]32`, the EC50 was greater than 100 µM. Under `CCC(=O)NC[C@@]1(O)[C@H](OC(=O)C(C)C)[C@]2(CC)C=CCN3CC[C@@]4(c5ccc(OC)cc5N(C)[C@@H]14)[C@@H]32` stands 18.5 µM. To `CC[C@]12C=CCN3CC[C@@]4(c5ccc(OC)cc5N(C)[C@H]4[C@@](O)(CNC(C)=O)[C@@H]1OC(C)=O)[C@@H]32` belongs 19.3 µM; to `CCCO[C@@H]1[C@]2(CC)C=CCN3CC[C@@]4(c5ccc(OC)cc5N(C)[C@H]4[C@@]1(O)C(=O)OC)[C@@H]32`, 64.3 µM; to `CC[C@]12C=CCN3CC[C@@]4(c5ccc(OC)cc5N(C)[C@H]4[C@@](O)(C(=O)OC)[C@@H]1OC(=O)C1CCCCC1)[C@@H]32`, 80.5 µM. Consider `CCCCOC[C@@]1(O)[C@H](OC(C)=O)[C@]2(CC)C=CCN3CC[C@@]4(c5ccc(OC)cc5N(C)[C@@H]14)[C@@H]32`, for which the EC50 was greater than 100 µM. For `CC[C@]12C=CCN3CC[C@@]4(c5ccc(OC)cc5N(C)[C@H]4[C@@](O)(CNC(=O)C(C)(C)C)[C@@H]1OC(C)=O)[C@@H]32`, the EC50 came out at 21 µM. Molecule `CCC(=O)O[C@@H]1[C@]2(CC)C=CCN3CC[C@@]4(c5ccc(OC)cc5N(C)[C@H]4[C@@]1(O)C(=O)OC)[C@@H]32` gave an EC50 of 32.6 µM.

On to `CC[C@]12C=CCN3CC[C@@]4(c5ccc(OC)cc5N(C)[C@H]4[C@@](O)(C(=O)OC)[C@@H]1OC(C)=O)[C@@H]32`, for which a half-maximal effect (EC50) was put at 50.2 µM.

Consider `CC[C@]12C=CCN3CC[C@@]4(c5ccc(OC)cc5N(C)[C@H]4[C@@](O)(C(=O)OC)[C@@H]1OC)[C@@H]32`, for which the EC50 was greater than 100 µM. As to `CCOC[C@@]1(O)[C@H](OC(=O)C(C)C)[C@]2(CC)C=CCN3CC[C@@]4(c5ccc(OC)cc5N(C)[C@@H]14)[C@@H]32`, the EC50 was 14.2 µM. This counts as double-digit micromolar.

`CCCOC[C@@]1(O)[C@H](OC(C)=O)[C@]2(CC)C=CCN3CC[C@@]4(c5ccc(OC)cc5N(C)[C@@H]14)[C@@H]32` returned a concentration giving a half-maximal response (EC50) of 41.5 µM. Turning to `CC[C@]12C=CCN3CC[C@@]4(c5ccc(OC)cc5N(C)[C@H]4[C@@](O)(COC)[C@@H]1OC(C)=O)[C@@H]32`, a half-maximal response (EC50) required 41 µM.

In turn, `CC[C@]12C=CCN3CC[C@@]4(c5ccc(OC)cc5N(C)[C@H]4[C@@](O)(C(=O)OC)[C@@H]1OC(=O)C(C)C)[C@@H]32` displayed an EC50 of 10.4 µM.
